According to patent US11739074B2, “Ras inhibitors” (Revolution Medicines, Inc., priority 2019, dated 2023):
Like-named read-outs stand apart in the source and are kept apart here.

What was measured:
Format in all cases: cell-based
NCI-H358 (K-Ras G12C) = experiment: CellTiter-Glo cell viability assay, H358; conditions: Homo sapiens, NCI-H358, 120 h
How it was run: (§1)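 Direct compound addition to plated cells; 5-day exposure; ~30 min RT equilibration; CellTiter-Glo luminescence. Normalization: (sample/avg DMSO)*100; 4-parameter logistic curve fit.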

AsPC-1 (K-Ras G12D) [1] = experiment: Potency assay: pERK in AsPC-1 cells; conditions: Homo sapiens
AsPC-1 (K-Ras G12D) [2] = experiment: CellTiter-Glo cell viability assay, AsPC-1; conditions: Homo sapiens, ASPC1, 120 h
How it was run: as §1

[3] = NCI-H358, K-Ras G12C, 5-day treatment, read-out: H358 Cell Viability IC50
[4] = ASPC1, AsPC-1 cells, K-Ras G12D, read-out: pERK EC50 (AsPC-1 KRAS G12D)
[5] = AsPC-1, K-Ras G12D, 5-day treatment, read-out: AsPC-1 Cell Viability IC50
[6] = read-out: H358 Cell Viability IC50, NCI-H358, K-Ras G12C, 5-day treatment
[7] = ASPC1, read-out: pERK EC50 (AsPC-1 KRAS G12D)
[8] = read-out: AsPC-1 Cell Viability IC50, AsPC-1, K-Ras G12D, 5-day treatment

| Compound | IC50 (NCI-H358 (K-Ras G12C); [3]) | EC50 (AsPC-1 (K-Ras G12D) [1]; [4]) | IC50 (AsPC-1 (K-Ras G12D) [2]; [5]) | IC50 (NCI-H358 (K-Ras G12C); [6]) | EC50 (AsPC-1 (K-Ras G12D) [1]; [7]) | IC50 (AsPC-1 (K-Ras G12D) [2]; [8]) |
| --- | --- | --- | --- | --- | --- | --- |
| CCn1c(-c2cccnc2[C@H](C)OC)c2c3cc(ccc31)-c1cc(O)cc(c1)C[C@H](NC(=O)[C@H](C(C)C)N(C)C(=O)[C@H]1CCCN(C(=O)[C@H]3CN3)C1)C(=O)N1CCC[C@H](N1)C(=O)OCC(C)(C)C2 [Compound 165] | < 0.01 µM | < 5 µM | 1 to 10 µM |  |  |  |
| CCn1c(-c2cccnc2[C@H](C)OC)c2c3cc(ccc31)-c1csc(n1)C[C@H](NC(=O)[C@H](C(C)C)N(C)C(=O)N1CCN(C(=O)[C@H]3CN3)CC1)C(=O)N1CCC[C@H](N1)C(=O)OCC(C)(C)C2 [Compound 169] | 0.01 to 0.1 µM | < 5 µM | 0.1 to 1 µM |  |  |  |
| CCn1c(-c2cccnc2[C@H](C)OC)c2c3cc(ccc31)-c1cc(O)cc(c1)C[C@H](NC(=O)[C@H](C(C)C)N(C)C(=O)CN(C)C(=O)C1CN1CCOC)C(=O)N1CCC[C@H](N1)C(=O)OCC(C)(C)C2 (stereo partly drawn) [Compound 90] |  |  |  | < 0.01 µM | < 5 µM | 0.1 to 1 µM |
| CCn1c(-c2cccnc2[C@H](C)OC)c2c3cc(ccc31)-c1cc(cc(C(F)F)c1)C[C@H](NC(=O)[C@H](C1CCCC1)N(C)C(=O)CN(C)C(=O)[C@@H]1N[C@@H]1C1CC1)C(=O)N1CCC[C@H](N1)C(=O)OCC(C)(C)C2 [Compound 320] | 0.1 to 1 µM | < 5 µM | 0.1 to 1 µM |  |  |  |
| CCn1c(-c2cccnc2[C@H](C)OC)c2c3cc(ccc31)-c1cc(O)cc(c1)C[C@H](NC(=O)[C@H](C1CCCC1)N(C)C(=O)[C@H](C)N(C)C(=O)[C@@H]1N[C@@H]1C1CC1)C(=O)N1CCC[C@H](N1)C(=O)OCC(C)(C)C2 [Compound 328] | < 0.01 µM | < 5 µM | 0.1 to 1 µM |  |  |  |
| CCn1c(-c2cccnc2[C@H](C)OC)c2c3cc(ccc31)-c1csc(n1)C[C@H](NC(=O)[C@H](C(C)C)N(C)C(=O)N1CCCN(C(=O)[C@H]3CN3)CC1)C(=O)N1CCC[C@H](N1)C(=O)OCC(C)(C)C2 [Compound 222] | < 0.01 µM | < 5 µM | 0.1 to 1 µM |  |  |  |
| CCn1c(-c2cccnc2[C@H](C)OC)c2c3cc(ccc31)-c1csc(n1)C[C@H](NC(=O)[C@H](C(C)C)N(C)C(=O)N1CCN(C(=O)[C@H]3CN3)[C@@H](C)C1)C(=O)N1CCC[C@H](N1)C(=O)OCC(C)(C)C2 [Compound 297] | 0.01 to 0.1 µM | < 5 µM | 0.1 to 1 µM |  |  |  |
| CCn1c(-c2cccnc2[C@H](C)OC)c2c3cc(ccc31)-c1cc(O)cc(c1)C[C@H](NC(=O)[C@H](C(C)C)N(C)C(=O)[C@H]1CCCN(C(=O)[C@@H]3CN3)C1)C(=O)N1CCC[C@H](N1)C(=O)OCC(C)(C)C2 [Compound 236] | < 0.01 µM | < 5 µM | 1 to 10 µM |  |  |  |
| CCn1c(-c2cccnc2[C@H](C)OC)c2c3cc(ccc31)-c1cc(O)cc(c1)C[C@H](NC(=O)[C@H](C(C)C)N(C)C(=O)CN(C)C(=O)[C@H]1CN1CC(=O)N(C)C)C(=O)N1CCC[C@H](N1)C(=O)OCC(C)(C)C2 (stereo partly drawn) [Compound 270] |  |  |  | 0.01 to 0.1 µM | < 5 µM | 0.1 to 1 µM |
| CCn1c(-c2cccnc2[C@H](C)OC)c2c3cc(ccc31)-c1cc(O)cc(c1)C[C@H](NC(=O)[C@H](C(C)C)N(C)C(=O)[C@@H]1CO[C@H](C)CN1C(=O)[C@@H]1CN1)C(=O)N1CCC[C@H](N1)C(=O)OCC(C)(C)C2 [Compound 249] | 0.01 to 0.1 µM | < 5 µM | 0.01 to 0.1 µM |  |  |  |
| CCn1c(-c2cccnc2[C@H](C)OC)c2c3cc(ccc31)-c1cc(O)cc(c1)C[C@H](NC(=O)[C@H](C1CCCC1)N(C)C(=O)CN(C)C(=O)[C@@H]1N[C@@H]1C1CC1)C(=O)N1CCC[C@H](N1)C(=O)OCC(C)(C)C2 [Compound 170] | 0.01 to 0.1 µM | < 5 µM | 0.01 to 0.1 µM |  |  |  |
| CC[C@H]1N[C@H]1C(=O)N(C)CC(=O)N(C)[C@H](C(=O)N[C@H]1Cc2cc(O)cc(c2)-c2ccc3c(c2)c(c(-c2cccnc2[C@H](C)OC)n3CC)CC(C)(C)COC(=O)[C@@H]2CCCN(N2)C1=O)C(C)C [Compound 262] |  |  |  | 0.01 to 0.1 µM | < 5 µM | 0.1 to 1 µM |
| CCn1c(-c2cccnc2[C@H](C)OC)c2c3cc(ccc31)-c1cc(O)cc(c1)C[C@H](NC(=O)[C@H](C(C)C)N(C)C(=O)CN(C)C(=O)[C@@H]1N[C@@H]1C(F)(F)F)C(=O)N1CCC[C@H](N1)C(=O)OCC(C)(C)C2 [Compound 258] |  |  |  | 0.01 to 0.1 µM | < 5 µM | 0.1 to 1 µM |
| CCn1c(-c2cccnc2[C@H](C)OC)c2c3cc(ccc31)-c1cc(O)cc(c1)C[C@H](NC(=O)[C@H](C(C)C)N(C)C(=O)CNC(=O)[C@@H]1N[C@@H]1C1CC1)C(=O)N1CCC[C@H](N1)C(=O)OCC(C)(C)C2 [Compound 141] |  |  |  | 0.1 to 1 µM | < 5 µM | 0.1 to 1 µM |
| CCn1c(-c2cnccc2COC)c2c3cc(ccc31)-c1cc(O)cc(c1)C[C@H](NC(=O)[C@H](C(C)C)N(C)C(=O)CN(C)C(=O)[C@@H]1N[C@H]1c1ccc(OC)cc1)C(=O)N1CCC[C@H](N1)C(=O)OCC(C)(C)C2 [Compound 96] |  |  |  | 1 to 10 µM | < 5 µM | 1 to 10 µM |
| CCn1c(-c2cccnc2[C@H](C)OC)c2c3cc(ccc31)-c1csc(n1)C[C@H](NC(=O)[C@H](C(C)C)N(C)C(=O)N1CC[C@@H](N(C)C(=O)[C@H]3CN3)C1)C(=O)N1CCC[C@H](N1)C(=O)OCC(C)(C)C2 [Compound 226] | 0.01 to 0.1 µM | < 5 µM | 1 to 10 µM |  |  |  |
| CCn1c(-c2cccnc2[C@H](C)OC)c2c3cc(ccc31)-c1cc(O)cc(c1)C[C@H](NC(=O)[C@H](C(C)C)N(C)C(=O)CN(C)C(=O)[C@@H]1N[C@H]1C1COC1)C(=O)N1CCC[C@H](N1)C(=O)OCC(C)(C)C2 [Compound 283] |  |  |  | 0.01 to 0.1 µM | < 5 µM | 0.1 to 1 µM |
| CCn1c(-c2cccnc2[C@H](C)OC)c2c3cc(ccc31)-c1csc(n1)C[C@H](NC(=O)[C@H](C(C)C)N(C)C(=O)N1CC(CN(C)C(=O)[C@H]3CN3)C1)C(=O)N1CCC[C@H](N1)C(=O)OCC(C)(C)C2 [Compound 224] | 0.01 to 0.1 µM | < 5 µM | 0.1 to 1 µM |  |  |  |
| CCn1c(-c2cccnc2[C@H](C)OC)c2c3cc(ccc31)-c1csc(n1)C[C@H](NC(=O)[C@H](C(C)C)N(C)C(=O)N1CCC(CN(C)C(=O)[C@H]3CN3)CC1)C(=O)N1CCC[C@H](N1)C(=O)OCC(C)(C)C2 [Compound 326] | 0.01 to 0.1 µM | < 5 µM | 0.1 to 1 µM |  |  |  |
| CCn1c(-c2cccnc2[C@H](C)OC)c2c3cc(ccc31)-c1cc(O)cc(c1)C[C@H](NC(=O)[C@H](C(C)C)N(C)C(=O)CN(C)C(=O)[C@H]1N[C@H]1C(C)C)C(=O)N1CCC[C@H](N1)C(=O)OCC(C)(C)C2 [Compound 265] |  |  |  | 0.01 to 0.1 µM | < 5 µM | 0.1 to 1 µM |
| CCn1c(-c2cccnc2[C@H](C)OC)c2c3cc(ccc31)-c1cc(O)cc(c1)C[C@H](NC(=O)[C@H](C(C)C)N(C)C(=O)CN(C)C(=O)[C@@H]1N[C@@H]1C(C)C)C(=O)N1CCC[C@H](N1)C(=O)OCC(C)(C)C2 [Compound 264] |  |  |  | 0.01 to 0.1 µM | < 5 µM | 0.1 to 1 µM |
| CCn1c(-c2cccnc2[C@H](C)OC)c2c3cc(ccc31)-c1cc(O)cc(c1)C[C@H](NC(=O)[C@H](C(C)C)N(C)C(=O)CN(C)C(=O)[C@H]1CN1CCCOC(C)=O)C(=O)N1CCC[C@H](N1)C(=O)OCC(C)(C)C2 (stereo partly drawn) [Compound 266] |  |  |  | < 0.01 µM | < 5 µM | 0.1 to 1 µM |
| CCn1c(-c2cccnc2[C@H](C)OC)c2c3cc(ccc31)-c1cc(O)cc(c1)C[C@H](NC(=O)[C@H](C1CCCC1)N(C)C(=O)CN(C)C(=O)[C@H]1N[C@H]1C1(OC)CC1)C(=O)N1CCC[C@H](N1)C(=O)OCC(C)(C)C2 (single isomer, unassigned) [Compound 322] | 0.01 to 0.1 µM | < 5 µM | 1 to 10 µM |  |  |  |
| CC[C@@H]1N[C@@H]1C(=O)N(C)CC(=O)N(C)[C@H](C(=O)N[C@H]1Cc2cc(O)cc(c2)-c2ccc3c(c2)c(c(-c2cccnc2[C@H](C)OC)n3CC)CC(C)(C)COC(=O)[C@@H]2CCCN(N2)C1=O)C(C)C [Compound 263] |  |  |  | 0.01 to 0.1 µM | < 5 µM | 0.1 to 1 µM |
| CCn1c(-c2cnccc2COC)c2c3cc(ccc31)-c1cc(O)cc(c1)C[C@H](NC(=O)[C@H](C(C)C)N(C)C(=O)CN(C)C(=O)[C@@H]1N[C@@H]1C(=O)OC)C(=O)N1CCC[C@H](N1)C(=O)OCC(C)(C)C2 [Example 49, methyl (2S,3R)-3-((2-(((2S)-1-(((6^3S,4S)-1^1-ethyl-2^5-hydroxy-1^2-(4-(methoxymethyl)pyridin-3-yl)-10,10-dimethyl-5,7-dioxo-6^1,6^2,6^3,6^4,6^5,6^6-hexahydro-1^1H-8-oxa-1(5,3)-indola-6(1,3)-pyridazina-2(1,3)-benzenacycloundecaphane-4-yl)amino)-3-methyl-1-oxobutan-2-yl)(methyl)amino)-2-oxoethyl)(methyl)carbamoyl)aziridine-2-carboxylate] |  |  |  | 1 to 10 µM | < 5 µM | 1 to 10 µM |
| CCn1c(-c2cccnc2[C@H](C)OC)c2c3cc(ccc31)-c1cc(O)cc(c1)C[C@H](NC(=O)[C@H](C(C)C)N(C)C(=O)[C@@H]1CCN(C(=O)[C@H]3CN3)[C@@H]1C)C(=O)N1CCC[C@H](N1)C(=O)OCC(C)(C)C2 [Compound 207] | < 0.01 µM | < 5 µM | 0.1 to 1 µM |  |  |  |
| CCn1c(-c2cccnc2[C@H](C)OC)c2c3cc(ccc31)-c1cc(O)cc(c1)C[C@H](NC(=O)[C@H](C(C)C)N(C)C(=O)[C@]1(C)CCCN1C(=O)[C@H]1CN1)C(=O)N1CCC[C@H](N1)C(=O)OCC(C)(C)C2 [Compound 243] | 0.1 to 1 µM | < 5 µM | 0.1 to 1 µM |  |  |  |
